{
  "source": "paper PMC4506092",
  "about": "“Utilizing Chemical Genomics to Identify Cytochrome b as a Novel Drug Target for Chagas Disease” (PLoS Pathogens, 2015)",
  "key": {"[1]": {"system": "T. cruzi intracellular amastigotes (GNF7686-resistant, DR)", "test": "T. cruzi intracellular amastigote efficacy assay in NIH/3T3 cells, GNF7686-resistant strain", "assay_type": "cell-based", "conditions": "Trypanosoma cruzi, NIH3T3, intracellular amastigotes in NIH/3T3, 48-hour treatment", "experimental": "(§1) To determine compound efficacy on T. cruzi intracellular amastigotes, NIH/3T3 cells were seeded (1,000 cells / well, 40 μL) into microscopy-grade, clear bottom, 384-well plates (Greiner) in RPMI-1640 medium containing 5% heat-inactivated fetal bovine serum and 100 IU penicillin / 100 μg streptomycin per mL. Plates were incubated overnight at 37°C / 5% CO2. Cells were infected with T. cruzi trypomastigotes at a multiplicity of infection (MOI) of 10 for the wild-type strain, and 20 for the GNF7686-resistant mutant strain. After six hours of infection (at 37°C / 5% CO2), the plates were washed by aspirating the medium and replacing with fresh screening medium to remove remaining extracellular trypomastigotes. The plates with infected cells were incubated overnight (37°C / 5% CO2) and compounds dissolved in DMSO were added to plate wells on the following day (0.2% DMSO final concentration). […] The plates were then scanned using the Evotec Opera High Content Screening System (Perkin Elmer) and amastigote proliferation was assessed by counting parasites within the 3T3 cells using CellProfiler version 2.1.0 cell image analysis software. […]"}, "in vivo": {"test": "in vivo", "conditions": "mouse"}, "[2]": {"system": "T. cruzi intracellular amastigotes (wild-type)", "test": "T. cruzi intracellular amastigote efficacy assay in NIH/3T3 cells, wild-type strain", "assay_type": "cell-based", "conditions": "Trypanosoma cruzi, NIH3T3, intracellular amastigotes in NIH/3T3, 48-hour treatment, read-out: Amastigote EC50, WT", "experimental": "as §1"}, "[3]": {"target": "T. cruzi cytochrome bc1 (complex III), wild-type (Trypanosoma cruzi, UniProt Q9TED7)", "sequence (Q4DU59 entry or part of it)": "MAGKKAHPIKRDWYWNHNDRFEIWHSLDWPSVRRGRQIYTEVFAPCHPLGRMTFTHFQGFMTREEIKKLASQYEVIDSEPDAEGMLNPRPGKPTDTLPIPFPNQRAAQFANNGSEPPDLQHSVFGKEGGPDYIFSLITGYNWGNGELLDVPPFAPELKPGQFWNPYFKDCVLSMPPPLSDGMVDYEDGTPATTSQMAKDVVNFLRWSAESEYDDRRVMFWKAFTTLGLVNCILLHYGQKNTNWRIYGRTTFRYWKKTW", "sequence (Q9TED7 entry or part of it)": "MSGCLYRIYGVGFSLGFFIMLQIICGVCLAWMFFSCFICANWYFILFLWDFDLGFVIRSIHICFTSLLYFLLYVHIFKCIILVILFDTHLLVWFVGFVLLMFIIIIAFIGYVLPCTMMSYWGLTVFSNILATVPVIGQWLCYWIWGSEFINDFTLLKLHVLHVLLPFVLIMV", "test": "T. cruzi complex III activity (decylubiquinol / cytochrome c reaction), wild-type", "assay_type": "biochemical", "conditions": "digitonin-permeabilized epimastigotes", "experimental": "(§2) T. cruzi epimastigotes ([…], density of 5 × 10^7 parasites / mL) were harvested by centrifugation (800 × g for 5 minutes at 4°C) and resuspended at 10 mg / mL of protein in buffer A containing 0.1 mg digitonin / mg protein. The parasites were then incubated with the detergent for 10 minutes at 26°C. The pellet fraction was collected by centrifugation (13,000 × g for 5 min at 4°C) and immediately used in the complex III assay.\n(§3) Complex III activity was monitored using a coupled decylubiquinol / cytochrome c reaction. Decylubiquinone was first reduced to decylubiquinol as described. […] The reduction of cytochrome c was monitored at 550 nm using the SpectraMax Plus384 absorbance microplate reader. Blank samples containing all components excluding decylubiquinol were processed in parallel and absorbance values were subtracted from sample absorbance values to specifically measure […] reduction of cytochrome c. All sample and blank wells were prepared in triplicate. For IC50 determination, the slope of the linear portion of the corrected respiration trace was determined, and normalized to the slope obtained for 0.2% DMSO condition."}, "[4]": {"system": "T. cruzi mutant complex III (cytochrome b L197F)", "test": "T. cruzi complex III activity (decylubiquinol / cytochrome c reaction), GNF7686-resistant", "assay_type": "biochemical, Trypanosoma cruzi", "conditions": "digitonin-permeabilized epimastigotes", "experimental": "as §2, §3"}, "[5]": {"system": "rat skeletal muscle mitochondria respiration", "test": "Respiration of isolated rat skeletal muscle mitochondria (oxygen consumption)", "assay_type": "biochemical", "conditions": "mitochondria from rat skeletal muscle", "experimental": "GNF7686 and cytochrome b inhibitors (0.2% DMS0 final concentration) were added to 384-well assay plates containing 20 μL of assay buffer (250 mM sucrose, 15 mM KCl, 5 mM MgCl2, 1 mM EGTA, 30 mM K2HPO4, pH 7.4) and allowed to dissolve for two hours. Meanwhile, T. cruzi epimastigotes were harvested (800 × g for 5 min at 4°C), washed twice with buffer A (10 mM Tris-HCl, pH = 7.4, 0.23 M mannitol, 0.07 M sucrose, 0.2 mM EDTA, 0.2% bovine serum albumin, 0.5 mM phenylmethanesulfonyl fluoride), and finally resuspended in buffer A at a final concentration of 150 × 10^6 epimastigotes / mL. […] The assay plate was transferred to a Gemini XPS fluorescence plate reader (Molecular Devices) and read at 3 minute intervals at excitation and emission wavelengths of 380 nm and 650 nm, respectively, for 30 minutes at 37°C. The slope for the linear portion of time course of fluorescence increase (rate of oxygen consumption) was calculated after subtraction of blank well values. […]\nSprague Dawley rats were euthanized and skeletal muscle (from hind legs) was removed and stored in CP1 buffer (0.1 M KCl, 0.05 M Tris, 2 mM EGTA, pH 7.4 at 4°C) on ice. […] Respiration in isolated rat mitochondria was measured using the same protocol as described for T. cruzi epimastigotes using 150 μg protein / sample."}},
  "data": [
    {"smiles": "CCc1c(C)c(C#N)c2nc3ccccc3n2c1O", "note": "[GNF7686]", "values": [
      {"measurement": "EC50", "setting": "[1]", "value": "0.66 ± 0.12", "unit": "µM"},
      {"measurement": "clearance", "setting": "in vivo", "value": 3.18, "unit": "L/h/kg"},
      {"measurement": "bioavailability", "setting": "in vivo; po", "value": 6, "unit": "%"},
      {"measurement": "EC50", "setting": "[2]", "value": "0.15 ± 0.03", "unit": "µM"},
      {"measurement": "IC50", "setting": "[3]", "value": 0.4, "unit": "µM"},
      {"measurement": "Loss of potency on complex III, mutant vs wild-type", "setting": "[4]", "value": 20, "unit": "fold"},
      {"measurement": "Mammalian (rat) mitochondrial respiration: no effect on oxygen consumption up to", "setting": "[5]", "value": "> 25", "unit": "µM"}
    ]},
    {"smiles": "CCCCCC[C@H]1C(=O)O[C@H](C)[C@H](NC(=O)c2cccc(NC=O)c2O)C(=O)O[C@@H](C)[C@@H]1OC(=O)CC(C)C", "note": "[Antimycin A]", "values": [
      {"measurement": "Loss of potency on complex III, mutant vs wild-type", "setting": "[4]", "value": "~ 100 fold"},
      {"measurement": "IC50", "setting": "[5]; read-out: Rat mitochondrial respiration IC50", "value": 0.81, "unit": "µM"}
    ]},
    {"smiles": "O=C(Cn1ccnc1[N+](=O)[O-])NCc1ccccc1", "note": "[Benznidazole]", "values": [
      {"measurement": "EC50", "setting": "[1]", "value": "0.82 ± 0.13", "unit": "µM"},
      {"measurement": "EC50", "setting": "[2]", "value": "1.4 ± 0.17", "unit": "µM"}
    ]}
  ]
}
